According to ChEMBL document CHEMBL2157946, “Hydrolytic instability of the important orexin 1 receptor antagonist SB-334867: possible confounding effects on in vivo and in vitro studies” (Bioorg Med Chem Lett, 2012):
Blank lines part the entries; values can stand above or below the compound they belong to.

How the values were obtained:
[1] = Chemical stability of the compound stored under argon in tightly sealed amber bottle at 15 degC assessed as 1-(2-hydroxy-4-{[(1,5-naphthyridin-4-yl)carbamoyl]amino} phenyl)acetamide formation after 10 months by NMR analysis; type: physicochemical; details: 7305 h
[2] = Chemical stability of the compound stored under argon in tightly sealed amber bottle at 15 degC assessed as 1-(2-hydroxy-4-{[(1,5-naphthyridin-4-yl)carbamoyl]amino} phenyl)acetamide formation after 10 months by mass spectrometry analysis; type: physicochemical; details: 7305 h
[3] = molecular target: T1, Orexin/Hypocretin receptor type 1 (Homo sapiens, UniProt O43613); assay: Antagonist activity at OX1 receptor expressed in RD-HGA16 cells assessed as inhibition of orexin A-induced intracellular calcium mobilization after 15 mins by FLIPR assay; type: functional, cell-based
T1 sequence (O43613 whole entry): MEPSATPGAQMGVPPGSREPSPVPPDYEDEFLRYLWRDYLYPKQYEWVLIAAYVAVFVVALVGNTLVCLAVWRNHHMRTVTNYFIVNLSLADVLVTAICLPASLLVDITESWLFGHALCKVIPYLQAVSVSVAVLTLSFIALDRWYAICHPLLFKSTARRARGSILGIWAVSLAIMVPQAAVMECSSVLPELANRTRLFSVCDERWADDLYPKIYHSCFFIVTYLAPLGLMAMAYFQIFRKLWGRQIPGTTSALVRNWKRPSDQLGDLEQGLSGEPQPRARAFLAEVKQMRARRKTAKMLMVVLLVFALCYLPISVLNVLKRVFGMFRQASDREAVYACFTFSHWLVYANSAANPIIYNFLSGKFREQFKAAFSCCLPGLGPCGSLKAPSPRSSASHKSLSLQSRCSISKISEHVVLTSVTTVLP

Rattus norvegicus [4] = assay: Antagonist activity at OX1 receptor in rat assessed as decrease in alcoholic response at 20 mg/kg, ip after 30 mins; type: functional; set-up: scale not given: the % may be the effect or the level left; details: route intraperitoneal
Rattus norvegicus [5] = assay: Antagonist activity at OX1 receptor in rat assessed as decrease in alcoholic response at 5 mg/kg, ip; type: functional; set-up: scale not given: the % may be the effect or the level left; details: route intraperitoneal
[6] = Chemical stability of the compound as refrigerated solution in 100 % DMSO stored in teflon sealed container up to 3 months by NMR analysis; type: physicochemical
[7] = Solubility of the compound in DMSO at 7.5 mg at room temperature after 15 mins by sonication method in presence of encapsin; type: physicochemical; details: in vivo, 0.25 h
[8] = Solubility of the compound in ACSF at 1.6 mg at room temperature after 45 mins by sonication method; type: physicochemical; details: in vivo, 0.75 h

Stability [1]: Unstable
Stability [2]: Unstable
Structure (SMILES): Cc1nc2ccc(NC(=O)Nc3ccnc4cccnc34)cc2o1.Cl

IC50 [3]: > 30 µM
Structure (SMILES): CC(=O)Nc1ccc(NC(=O)Nc2ccnc3cccnc23)cc1O

Stability [6]: Stable
solubility [7]: Insoluble
solubility [8]: Insoluble
Structure (SMILES): Cc1nc2ccc(NC(=O)Nc3ccnc4cccnc34)cc2o1
Activity (Rattus norvegicus [4]): 50%
Activity (Rattus norvegicus [5]): 75%
